Laboratory results taken from patent US20030176356A1, “Endothelin antagonists and endothelin-converting enzyme inhibitors for the treatment of glaucoma” (University of North Texas Health Science Center, priority 2001, published 2003).
Entries after “also recorded” stand apart in the source; their conditions may differ. No end group written: not given here.

Columns and labels:
[1] = tested on: human non-pigmented ciliary epithelial (HNPE) cells; assay: Nitric oxide release from HNPE cells (nitrite, Griess colorimetric assay); assay type: cell-based; details: 100 nM ET-1, 24 hours; control 14.4±1.8 μM nitrite
Procedure: The effect of endothelin-1 (ET-1) and PD-142893, an ETA/B receptor antagonist, on nitric oxide (“NO”) release from human non-pigmented ciliary epithelial (HNPE) cells are illustrated in FIG. 6. The NO released into the culture media from HNPE cells grown in 24-well plates and treated with ET-1 (100 nM) for 24 hours was converted to nitrites. The total amount of nitrites was measured using the Griess colorimetric assay. HNPE cells were pre-treated with PD-142893 (1 μM) for 30 minutes and then 100 nM ET-1 was also added and incubated for 24 hours. The values in FIG. 6 represent the mean±SEM of a ratio between the nitrite produced under experimental conditions divided by the nitrite produced in control cells, which corresponded to 14.4±1.8 μM and controls were expressed as 100% (n=3). Statistical significance of the nitrite released from ET-1 (100 nM) treatment versus the control are denoted with an asterisk (“*”). Statistical significance of the nitrite released from PD-142893+ET-1 (100 nM) treatment versus that of ET-1 (100 nM) are denoted as a double asterisk (“**”) The statistical differenced were determined by one-way ANOVA and Student-Newman-Keuls multiple comparison test (p<0.05). Thus, addition of ET-1 increased the nitrite levels nearly 2-fold when compared to control cells or cells treated with PD-142893.

[2] = tested on: NOS2; assay: NOS2 mRNA expression in HNPE cells by RT-PCR; assay type: cell-based, human; details: 100 nM ET-1, 24 hours, qualitative, vs non-treated controls
Text: Utilizing the powerful technique of RT-PCR on mRNA transcripts of NOS2, the amplified products were separated on an agarose gel and compared with untreated control RT_PCR products. […] RT-PCR products of the β-actin housekeeping gene were also amplified and visualized on an agarose gel as a mRNA isolation control.

[3] = tested on: rat optic nerve; assay: Anterograde axonal transport in rat optic nerve after intravitreal injection (35S-methionine pulse label); assay type: in vivo; details: for effect of ET-1 on anterograde axonal transport: intravitreal 2 nmol
Text: Newly synthesized proteins undergoing anterograde axonal transport in the optic nerve were pulse-labeled in either the presence or absence of endothelin as modified from previously published methods (van Biesen et al., 1995). Modifications to previously published methods were minimal and involved the replacement of a distilled water vehicle for resuspension of radiolabeled precursors with either HEPES buffered ET-1 or HEPES vehicle buffer alone. ^35S-Methionine (Easytag EXPRESS PROTEIN LABELING MIX, Dupont-NEN Life Sciences, Boston, Mass.) was lyophilized and resuspended in either vehicle alone (10 mM HEPES, pH 7.4, Sigma Chemical Co., St Louis, Mo.) or in vehicle containing 500 μM ET-1 (Bachem, Belmont, Calif.). Rats were anesthetized by Metofane inhalation, and 0.8 mCi (4 μl) of radiolabel in vehicle either plus or minus ET-1 (final dose 2 mmols), was injected into the vitreous of the left eye using a 30 gauge needle attached to a Hamilton syringe (microliter #710, 22s gauge, Hamilton Co., Reno, Nev.) by polyethylene tubing (PE-20, Clay Adams Brand, Becton Dickson and Co., Sparks, Md.) (van Biesen et al., 1995). In one experiment, ET-3 was substituted for ET-1, using the same methods (2 mmol dose, 28 hour ISI, N=7 for controls, N=7 for experimentals). […] One minute after injection, all retinas appeared normal in color. (Based upon these initial observations, further observations of the retinas were not performed). Information on the dose-related effect(s) of intravitreal ET-1 in this species (i.e. rat) were unavailable, and physiological/pathological concentrations of endothelin in the optic nerve head's microenvironment are generally unknown. Therefore, dose selection was made on the basis of a small pilot study, using these methods and measuring the total pulse-labeled protein axonally transported into the rat optic nerve. (An N of 3 rats in every group was used only for the pilot study, 4 hour ISI, data not shown). […] However, significant effects on axonal transport (4 hour ISI) were only seen in the pilot study for the 2 mmol dose. […] Possible effect(s) on non-assayed ocular tissues were not considered in dose selection, as data on these were unavailable for either acute or chronic intravitreal ET-1 administration, in rats.
This technique was employed to determine if endothelin-1 also affected the axonal transport in the optic nerve of rats, which is severely compromised in glaucoma. Harvest and preparation of pulse-labeled optic nerves in animals, wherein animals were anesthetized with metofane at specified times after injection and sacrificed by decapitation. Injection-sacrifice intervals were selected based upon the published characterizations of anterograde axonal transport in rat optic nerve for specific marker proteins associated with specific classes of axonally transported materials (Table 4) (Elluru et al., 1995; Garner and Lasek, 1981; Garner and Lasek, 1982; Jahn et al., 1985). Seven vehicle-treated animals and seven endothelin-treated animals were sacrificed at each of the specified times (4, 24, 28, 32, 36 hours and 4, 21 days). Optic nerves were removed, flash frozen with crushed dry ice, and sectioned frozen. Nerves were sectioned to aid complete homogenization, and to provide additional data for future studies. The frozen sections (2 mm in length) were numbered as segments 1-4 (from proximal to distal), and glass-on glass homogenized in 100 μlof BUST sample buffer (2% β-mercaptoethanol, 8M urea, 1% SDS, 0.1M Tris, 0.02% phenol red, pH 7.4). A 25% aliquot of each homogenized segment was counted in a liquid scintillation counter, and counts were corrected for decay, quench, and counting efficiency.

[4] = tested on: NOS-2; assay: NOS-2 mRNA expression in retina after intravitreal injection, RT-PCR; assay type: in vivo, Brown Norway rats; details: intravitreal 2 mmoles, 4 hours or 24 hours post-injection
Procedure: Elevated NOS-2 expression and peroxynitrite labeling are observed in glaucomatous retina and optic nerve head and are considered to be neurotoxic, which promote retinal ganglion cell death. ET-1 was injected in the left eye (OS) of rats while the right eye served as an contralateral control. Saline was also injected in some rats.

## ET-1: active 21 amino acid residue endothelin peptide (Bachem) (CSCSSLMDKECVYFCHLDIIW; ends and bridges not checked; cysteine pairing not given here; UniProt P05305 53-73, looked up)
[1]
  increase of nitrite levels compared to control cells: ~2 fold
[2]
  NOS2 mRNA levels: elevated mRNA levels of NOS2
[3]; 0.3, 0.4, and 2 mmol doses intravitreal, 4 hour ISI, significant only for the 2 mmol dose
  total pulse-labeled protein axonally transported into the rat optic nerve (pilot study): trend of increasingly enhanced axonal transport
[3]; ISI 4 hr, fast component, MBO/small tubulovesicles
  effect of ET-1 on anterograde axonal transport: significant enhancement; also recorded: increased
[3]; ISI 24 hr, fast component, MBO/small tubulovesicles
  effect of ET-1 on anterograde axonal transport: significant enhancement; also recorded: increased
[3]; ISI 28 hr, fast component, MBO/mitochondria
  effect of ET-1 on anterograde axonal transport: significant reduction; also recorded: decreased
[3]; ISI 32 hr, fast component, MBO/mitochondria
  effect of ET-1 on anterograde axonal transport: significant reduction; also recorded: decreased
[3]; ISI 36 hr, fast component, MBO/mitochondria
  effect of ET-1 on anterograde axonal transport: significant reduction; also recorded: decreased
[3]; ISI 4 days, SCa, cytoplasmic matrix proteins
  effect of ET-1 on anterograde axonal transport: significant reduction; also recorded: decreased
[3]; ISI 21 days, SCb, cytoskeletal proteins
  effect of ET-1 on anterograde axonal transport: significant reduction; also recorded: decreased
[4]
  mRNA expression of inducible nitric oxide synthase-2 (NOS-2) in the retina: causes the mRNA expression of inducible nitric oxide synthase-2 (NOS-2)
